Values joined by “and” are separate entries in the source; they are usually repeats but may differ in a detail not shown here. Equal values may be shown once. Ends that are not written are not given here.
Assays:
[1] = Electronic tongue analysis (Taste-Sensing System SA 402B); design: unit not given here; conditions: reference solution 30 mM KCl + 0.3 mM tartaric acid as baseline, first measurement excluded; for Umami: sensor AAE; for Umami / Bitter / Sweet: detection threshold 0, room temperature; for Umami / Bitter / Sour / Salty: four replicates; for Sour: detection threshold -13, room temperature; for Salty: detection threshold -6, room temperature; for Sweet: measured five times
Method in brief: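 Samples were tested at 0.1 and 1.0 mg/mL on an SA 402B e-tongue fitted with sourness, saltiness, bitterness, sweetness and umami sensors, with 30 mM KCl/0.3 mM tartaric acid as reference and baseline. Thresholds were −13 for sour, −6 for salty and 0 for the rest. Runs at room temperature: four replicates, five for sweetness, first reading discarded.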

[2] = system: human umbilical vein endothelial cells (HUVEC)
[3] = system: human bronchial epithelial cells (BEAS-2B)
[4] = system: human pancreatic ductal epithelial cells (HPNE)
[5] = system: human embryonic kidney cells (HEK293T)
[6] = system: red blood cells from 6-week-old BALB/c mice (mRBCs); experiment: Hemolysis assay; format: cell-based, mouse; conditions: mean of Data1-3; 100 μM peptide, 1.5 × 10^8 cells/mL mRBCs, 37°C, 60 min, absorbance 490 nm; PBS 0% and 1% Triton X-100 100% controls
Experimental: The hemolytic activity of synthetic peptides was evaluated using red blood cells from 6-week-old BALB/c mice (mRBCs). Freshly isolated mRBCs were washed three times with PBS buffer (8000 rpm, 2 min per wash) to prepare the mRBC suspension. Equal volumes (70 μL) of 200 μM peptide solutions and mRBC suspension were mixed to achieve final concentrations of 100 μM peptide and 1.5 × 10^8 cells/mL mRBCs in the reaction system. After incubation with shaking at 37°C for 60 min, samples were centrifuged at 10000 rpm for 5 min, and hemoglobin release was assessed by measuring the absorbance of the supernatant at 490 nm. PBS and 1% Triton X-100 treatments served as 0% and 100% hemolysis controls, respectively. A complete dataset of hemolytic activity measurements is documented in S4 Data.

YAGNAP [TaPep10]
Umami ([1]; peptide 0.1 mg/mL): 3.61
Umami ([1]; peptide 1 mg/mL): -3.37
Bitter ([1]; sensor C00, peptide 0.1 mg/mL): 6.97
Bitter ([1]; sensor C00, peptide 1 mg/mL): bitterness suppression and -0.80
Sour ([1]; sensor CA0, peptide 0.1 mg/mL): -8.60
Sour ([1]; sensor CA0, peptide 1 mg/mL): 8.97
Salty ([1]; sensor CT0, peptide 0.1 mg/mL): -20.44
Salty ([1]; sensor CT0, peptide 1 mg/mL): 14.02
Sweet ([1]; sensor GL1, peptide 0.1 mg/mL): 11.07
Sweet ([1]; sensor GL1, peptide 1 mg/mL): -4.53
Average cell viability, HUVEC [2]: 102.47
Cell viability, HUVEC, Data1 [2]: 99.31
Cell viability, HUVEC, Data2 [2]: 104.50
Cell viability, HUVEC, Data3 [2]: 103.62
Average cell viability, BEAS-2B [3]: 98.84
Cell viability, BEAS-2B, Data1 [3]: 101.69
Cell viability, BEAS-2B, Data2 [3]: 95.01
Cell viability, BEAS-2B, Data3 [3]: 99.80
Average cell viability, HPNE [4]: 95.54
Cell viability, HPNE, Data1 [4]: 97.18
Cell viability, HPNE, Data2 [4]: 94.47
Cell viability, HPNE, Data3 [4]: 94.97
Average cell viability, HEK293T [5]: 99.40
Cell viability, HEK293T, Data1 [5]: 94.83
Cell viability, HEK293T, Data2 [5]: 102.87
Cell viability, HEK293T, Data3 [5]: 100.50

YDGTPLN [TaPep11]
Umami ([1]; peptide 0.1 mg/mL): 2.75
Umami ([1]; peptide 1 mg/mL): -2.91
Bitter ([1]; sensor C00, peptide 0.1 mg/mL): 7.10
Bitter ([1]; sensor C00, peptide 1 mg/mL): 3.24
Sour ([1]; sensor CA0, peptide 0.1 mg/mL): -5.95
Sour ([1]; sensor CA0, peptide 1 mg/mL): 9.08
Salty ([1]; sensor CT0, peptide 0.1 mg/mL): -21.79
Salty ([1]; sensor CT0, peptide 1 mg/mL): 6.18
Sweet ([1]; sensor GL1, peptide 0.1 mg/mL): 9.69
Sweet ([1]; sensor GL1, peptide 1 mg/mL): -5.23
Average cell viability, HUVEC [2]: 112.96
Cell viability, HUVEC, Data1 [2]: 111.12
Cell viability, HUVEC, Data2 [2]: 113.36
Cell viability, HUVEC, Data3 [2]: 114.40
Average cell viability, BEAS-2B [3]: 102.96
Cell viability, BEAS-2B, Data1 [3]: 102.59
Cell viability, BEAS-2B, Data2 [3]: 99.80
Cell viability, BEAS-2B, Data3 [3]: 106.48
Average cell viability, HPNE [4]: 100.63
Cell viability, HPNE, Data1 [4]: 98.34
Cell viability, HPNE, Data2 [4]: 113.51
Cell viability, HPNE, Data3 [4]: 90.05
Average cell viability, HEK293T [5]: 102.37
Cell viability, HEK293T, Data1 [5]: 107.03
Cell viability, HEK293T, Data2 [5]: 95.68
Cell viability, HEK293T, Data3 [5]: 104.38

YGRGV [TaPep12]
Umami ([1]; peptide 0.1 mg/mL): 3.01
Umami ([1]; peptide 1 mg/mL): -2.86
Bitter ([1]; sensor C00, peptide 0.1 mg/mL): 8.03
Bitter ([1]; sensor C00, peptide 1 mg/mL): 0.75
Sour ([1]; sensor CA0, peptide 0.1 mg/mL): -6.74
Sour ([1]; sensor CA0, peptide 1 mg/mL): 6.59
Salty ([1]; sensor CT0, peptide 0.1 mg/mL): -17.83
Salty ([1]; sensor CT0, peptide 1 mg/mL): 7.54
Sweet ([1]; sensor GL1, peptide 0.1 mg/mL): 7.49
Sweet ([1]; sensor GL1, peptide 1 mg/mL): -7.92
Average hemolysis [6]: 0.43%
Average cell viability, HUVEC [2]: 94.89
Cell viability, HUVEC, Data1 [2]: 90.77
Cell viability, HUVEC, Data2 [2]: 98.75
Cell viability, HUVEC, Data3 [2]: 95.16
Average cell viability, BEAS-2B [3]: 99.57
Cell viability, BEAS-2B, Data1 [3]: 102.99
Cell viability, BEAS-2B, Data2 [3]: 93.52
Cell viability, BEAS-2B, Data3 [3]: 102.19
Average cell viability, HPNE [4]: 102.90
Cell viability, HPNE, Data1 [4]: 110.82
Cell viability, HPNE, Data2 [4]: 91.75
Cell viability, HPNE, Data3 [4]: 106.12
Average cell viability, HEK293T [5]: 102.93
Cell viability, HEK293T, Data1 [5]: 99.46
Cell viability, HEK293T, Data2 [5]: 109.02
Cell viability, HEK293T, Data3 [5]: 100.32

YQAENKH [TaPep14]
Umami ([1]; peptide 0.1 mg/mL): 3.07
Umami ([1]; peptide 1 mg/mL): -3.87
Bitter ([1]; sensor C00, peptide 0.1 mg/mL): 7.83
Bitter ([1]; sensor C00, peptide 1 mg/mL): 0.38
Sour ([1]; sensor CA0, peptide 0.1 mg/mL): -6.58
Sour ([1]; sensor CA0, peptide 1 mg/mL): 9.86
Salty ([1]; sensor CT0, peptide 0.1 mg/mL): -18.09
Salty ([1]; sensor CT0, peptide 1 mg/mL): 13.64
Sweet ([1]; sensor GL1, peptide 0.1 mg/mL): 7.88
Sweet ([1]; sensor GL1, peptide 1 mg/mL): -4.10
Average cell viability, HUVEC [2]: 95.42
Cell viability, HUVEC, Data1 [2]: 102.42
Cell viability, HUVEC, Data2 [2]: 90.29
Cell viability, HUVEC, Data3 [2]: 93.56
Average cell viability, BEAS-2B [3]: 116.78
Cell viability, BEAS-2B, Data1 [3]: 112.46
Cell viability, BEAS-2B, Data2 [3]: 118.94
Cell viability, BEAS-2B, Data3 [3]: 118.94
Average cell viability, HPNE [4]: 98.70
Cell viability, HPNE, Data1 [4]: 93.34
Cell viability, HPNE, Data2 [4]: 103.13
Cell viability, HPNE, Data3 [4]: 99.63
Average cell viability, HEK293T [5]: 98.23
Cell viability, HEK293T, Data1 [5]: 95.02
Cell viability, HEK293T, Data2 [5]: 96.25
Cell viability, HEK293T, Data3 [5]: 103.44

Source: article PMC12543283, “TastepepAI: An artificial intelligence platform for taste peptide de novo design” (PLOS Computational Biology, 2025)
